Each structure is given as a SMILES string. pIC50: −log10 of the molar value. Calls of active or inactive are those of the source. The rule behind the calls is not given here. Some results are limits rather than exact numbers.

The test system of one data set is MEF. Kind of data set: Cytotoxicity against MEFs assessed as reduction in cell viability up to 100 uM after 48 to 96 hrs by MTT assay. Format: cell-based. The conditions noted are these: mouse.
The test system of data set [1] is MDA-MB-231. Kind of data set: Cytotoxicity against human MDA-MB-231 cells assessed as reduction in cell viability after 48 hrs by MTT assay. Format: functional, cell-based. The conditions noted are these: MDA-MB-231, 48 h. In general terms: Tetrazolium assays rely on reduction of a dye to a coloured formazan, in cell work by metabolically active cells.
The subject of data set [2] is MCF7. Kind of data set: Cytotoxicity against human MCF7 cells assessed as reduction in cell viability after 48 hrs by MTT assay. Format: functional, cell-based. The conditions noted are these: MCF7, 48 h.
The subject of data set [3] is MDA-MB-231. Kind of data set: Cytotoxicity against human MDA-MB-231 cells assessed as reduction in cell viability after 96 hrs by MTT assay. The conditions noted are these: MDA-MB-231, 96 h. Format: functional, cell-based.
Data set [4] concerns MCF7. Kind of data set: Cytotoxicity against human MCF7 cells assessed as reduction in cell viability after 96 hrs by MTT assay. Format: functional, cell-based. The conditions noted are these: MCF7, 96 h.
The test system of data set [5] is MDA-MB-231. Kind of data set: Cytotoxicity against human MDA-MB-231 cells assessed as induction of cell death at 0.5 to 25 uM after 48 hrs by MTT assay. Format: functional, cell-based.
The test system of data set [6] is MCF7. Kind of data set: Cytotoxicity against human MCF7 cells assessed as induction of cell death at 0.5 to 25 uM after 48 hrs by MTT assay. Format: functional, cell-based.
For data set [7], the system named is MCF7. Kind of data set: Induction of cell death in human MCF7 cells at 10 to 50 uM after 24 hrs using calcein AM and ethidium homodimer-1 by live/dead assay. Format: functional.
Data set [8] concerns MDA-MB-231. Kind of data set: Induction of cell death in human MDA-MB-231 cells at 10 to 50 uM after 24 hrs using calcein AM and ethidium homodimer-1 by live/dead assay. Format: functional, cell-based.
Data set [9] concerns MCF7. Kind of data set: Induction of cell death in human MCF7 cells at 10 uM after 24 hrs using calcein AM and ethidium homodimer-1 by live/dead assay. Format: functional.
For data set [10], the system named is MDA-MB-231. Kind of data set: Ratio of tamoxifen IC50 to compound IC50 for human MDA-MB-231 cells assessed as reduction in cell viability after 96 hrs by MTT assay. Format: functional.
The subject of data set [11] is MCF7. Kind of data set: Ratio of tamoxifen IC50 to compound IC50 for human MCF7 cells assessed as reduction in cell viability after 96 hrs by MTT assay. Format: functional.
The subject of data set [12] is MDA-MB-231. Kind of data set: Ratio of ospemifene IC50 to compound IC50 for human MDA-MB-231 cells assessed as reduction in cell viability after 96 hrs by MTT assay. Format: functional.
The test system of data set [13] is MCF7. Kind of data set: Ratio of ospemifene IC50 to compound IC50 for human MCF7 cells assessed as reduction in cell viability after 96 hrs by MTT assay. Format: functional.
Data set [14] relates to MDA-MB-231. Kind of data set: Induction of cell death in human MDA-MB-231 cells at 10 uM after 24 hrs using calcein AM and ethidium homodimer-1 by live/dead assay. Format: functional.

As for `CC/C(=C(\c1ccccc1)c1ccc(OCCN(C)C)cc1)c1ccccc1` [TAMOXIFEN], the Activity entry in the data set on MEF is “Non-toxic”.
A word on the pIC50: it is −log10 of the IC50, conventionally taken in molar units. Take `O=C(NCC/C(=C(\c1ccccc1)c1ccc(OCCO)cc1)c1ccccc1)Oc1ccccc1`: the pIC50 in the data set with MDA-MB-231 [1] was below 4.00; with MCF7 [2] it was 4.12; in the data set with MDA-MB-231 [3] it was 4.21; in the data set with MCF7 [4], 4.30. Moreover, the outcome with MDA-MB-231 [5] and in the data set on MCF7 [6] was Active.
Take `OCCOc1ccc(/C(=C(/CCCl)c2ccccc2)c2ccccc2)cc1` [OSPEMIFENE]: the pIC50 was below 4.00 in the data set on MDA-MB-231 [1], below 4.00 in the data set on MCF7 [2], below 4.00 with MDA-MB-231 [3] and 4.26 in the data set on MCF7 [4]. Further, the Activity result with MEF was “Non-toxic”.
As for `[N-]=[N+]=NCCOc1ccc(/C(=C(/CCN=[N+]=[N-])c2ccccc2)c2ccccc2)cc1`, the result in the data set with MDA-MB-231 [5] and in the data set on MCF7 [6] was inactive.
Take `NCCOc1ccc(/C(=C(/CCN)c2ccccc2)c2ccccc2)cc1`: the pIC50 with MDA-MB-231 [1] is 4.77; with MCF7 [2], 4.63; with MDA-MB-231 [3], 4.87; in the data set on MCF7 [4], 4.95. For the same compound, the results for the Activity entry in the data set with MEF, in the data set on MCF7 [9] and in the data set on MDA-MB-231 [14] were “Non-toxic”, 70% and 70%, respectively. Moreover, the outcome in the data set with MDA-MB-231 [5], in the data set with MCF7 [6], in the data set with MCF7 [7] and in the data set on MDA-MB-231 [8] was Active. For the same compound, the “Ratio IC50” value with MDA-MB-231 [10] is reported as above 5; with MCF7 [11], above 5; in the data set with MDA-MB-231 [12], 5; in the data set on MCF7 [13], 5.
For `NCC/C(=C(\c1ccccc1)c1ccc(OCCO)cc1)c1ccccc1`, the pIC50 in the data set with MDA-MB-231 [1] is 4.60; in the data set with MCF7 [2], 4.80; in the data set with MDA-MB-231 [3] it was 4.84; with MCF7 [4] it was 4.91. The Activity result with MEF is reported as “Non-toxic”; in the data set on MCF7 [7], 50%. The outcome in the data set with MDA-MB-231 [5], in the data set with MCF7 [6] and in the data set with MDA-MB-231 [8] was Active. The “Ratio IC50” value in the data set with MDA-MB-231 [10] was above 5; in the data set with MCF7 [11] it was above 5; with MDA-MB-231 [12], 5; in the data set with MCF7 [13], 5.
For the compound `[N-]=[N+]=NCCOc1ccc(/C(=C(/CCCl)c2ccccc2)c2ccccc2)cc1`, the result in the data set on MDA-MB-231 [5] and in the data set on MCF7 [6] was inactive.
In the case of `[N-]=[N+]=NCC/C(=C(\c1ccccc1)c1ccc(OCCO)cc1)c1ccccc1`, the pIC50 with MDA-MB-231 [1], with MCF7 [2], in the data set on MDA-MB-231 [3] and in the data set on MCF7 [4] was below 4.00 throughout. Also, the result with MCF7 [6] was Active.
Turning to `CS(=O)(=O)OCCOc1ccc(/C(=C(/CCCl)c2ccccc2)c2ccccc2)cc1`, the outcome with MDA-MB-231 [5] and with MCF7 [6] was inactive.

The values are drawn from ChEMBL document CHEMBL3351602 (Eur J Med Chem, 2014).
